Measurements from patent publication US20080051387A1, “TETRAHYDROPYRIDO[3,4-D]PYRIMIDINES AND RELATED ANALOGUES” (priority 2006, published 2008).

The compounds below were run against T1, chimeric human H3 receptor (Homo sapiens, UniProt Q9Y5N1) (assay: Chimeric human H3 receptor screening GTP binding assay (inhibition of histamine-stimulated GTP-gamma35S binding, Example 8)). Details: symbol ! in Ki; test compound 4 μM, 1 μM histamine; read-out: percent inhibition of agonist-induced GTP-gammaS binding to H3.
T1 construct: rat Galpha-i2 (Gnai2, rat); made in house; host or cells: Sf9 insect cells (baculovirus); P2 membranes
Assay type: biochemical
Method: This Example illustrates a representative screening assay for evaluating inhibition of histamine-stimulated GTP-gamma^35S binding. Such GTP binding activity can be used to identify H3 antagonists and inverse agonists. A compound analyzed in this assay is referred to herein as a “test compound,” and the initial identification of antagonists and inverse agonists is performed using a test compound concentration of 4 μM.
Four independent baculoviral stocks (one directing the expression of the chimeric human H3 receptor and three directing the expression of each of the three subunits of a heterotrimeric G-protein) are used to infect a culture of Sƒ9 cells as described above. P2 membranes are prepared as described above, and are resuspended by Dounce homogenization (tight pestle) in GTP binding assay buffer (50 mM Tris pH 7.4, 120 mM NaCl, 5 mM MgCl2, 2 mM EGTA, 1 mg/ml BSA, 0.2 mg/ml bacitracin, 0.02 mg/ml aprotinin, 0.01 mg/ml saponin, 10 μM GDP) and added to assay tubes at a concentration of 35 μg protein/reaction tube. Non-radiolabeled test compounds are added to separate reactions at a concentration of 4 μM along with 1 μM histamine (agonist). Reactions are initiated by the addition of 125 pM GTP-gamma^35S with a final assay volume of 0.20 ml.
After a 60-min incubation at room temperature, reactions are terminated by vacuum filtration over GF/C filters (pre-soaked in 50 mM Tris pH 7.4, 120 mM NaCl plus 0.1% BSA) followed by washing with ice-cold buffer (50 mM Tris pH 7.4, 120 mM NaCl). The amount of receptor-bound (and thereby membrane-bound) GTP-gamma^35S is determined by measuring the bound radioactivity, preferably by liquid scintillation spectrometry of the washed filters. Non-specific binding is determined using 10 uM GTP-gammaS and typically represents less than 5 percent of total binding. After subtraction of non-specific binding, data is expressed as percent inhibition of 1 μM histamine signal.
Neutral antagonists are those test compounds that reduce the histamine-stimulated GTP binding activity towards, but not below, baseline levels. In contrast, in the absence of added histamine, inverse agonists reduce the GTP binding activity of the receptor-containing membranes below baseline. Any test compound that elevates GTP binding activity above baseline in the absence of added histamine in this assay is defined as having agonist activity.

T1 sequence (Q9Y5N1 with tags, fused parts or gaps): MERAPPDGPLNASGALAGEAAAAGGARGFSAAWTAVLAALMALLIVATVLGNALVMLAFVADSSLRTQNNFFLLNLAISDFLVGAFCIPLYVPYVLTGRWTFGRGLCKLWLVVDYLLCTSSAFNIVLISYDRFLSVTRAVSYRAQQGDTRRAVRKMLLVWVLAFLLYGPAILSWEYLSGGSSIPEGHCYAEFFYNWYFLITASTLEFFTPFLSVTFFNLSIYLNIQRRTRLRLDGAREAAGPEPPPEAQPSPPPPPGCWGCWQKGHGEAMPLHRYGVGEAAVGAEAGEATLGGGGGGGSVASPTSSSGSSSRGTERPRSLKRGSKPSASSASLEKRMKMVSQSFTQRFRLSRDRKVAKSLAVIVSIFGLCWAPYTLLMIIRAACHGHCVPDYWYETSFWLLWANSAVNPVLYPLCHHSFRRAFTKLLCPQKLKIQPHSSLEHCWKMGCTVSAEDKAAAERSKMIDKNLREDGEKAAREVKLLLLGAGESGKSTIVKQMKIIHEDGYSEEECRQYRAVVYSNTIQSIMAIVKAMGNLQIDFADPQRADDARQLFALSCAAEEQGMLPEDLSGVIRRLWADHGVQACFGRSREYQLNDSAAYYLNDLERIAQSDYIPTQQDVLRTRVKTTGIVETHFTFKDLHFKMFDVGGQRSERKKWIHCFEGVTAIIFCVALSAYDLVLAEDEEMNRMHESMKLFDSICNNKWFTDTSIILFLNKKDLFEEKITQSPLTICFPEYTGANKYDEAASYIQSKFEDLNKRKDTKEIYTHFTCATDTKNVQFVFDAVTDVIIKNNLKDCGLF

Inhibition at 4 µM, ≥ 90%:
CCN(CCN(C)C)c1ncnc2c1CCN(Cc1ccccc1)C2 [Compound 14, N-(7-benzyl-5,6,7,8-tetrahydropyrido[3,4-d]pyrimidin-4-yl)-N-ethyl-N′,N′-dimethylethane-1,2-diamine]
CCN(CC)C1CCN(c2ncnc3c2CCN(Cc2ccccc2)C3)C1 (stereo not drawn) [Compound 15, 1-(7-benzyl-5,6,7,8-tetrahydropyrido[3,4-d]pyrimidin-4-yl)-N,N-diethylpyrrolidin-3-amine]
c1ccc(CN2CCc3c(ncnc3N3CCN(C4CCCC4)CC3)C2)cc1 [Compound 16, 7-benzyl-4-(4-cyclopentylpiperazin-1-yl)-5,6,7,8-tetrahydropyrido[3,4-d]pyrimidine]
c1ccc(CN2CCc3c(ncnc3N3CCC(N4CCCCC4)CC3)C2)cc1 [Compound 17, 1′-(7-benzyl-5,6,7,8-tetrahydropyrido[3,4-d]pyrimidin-4-yl)-1,4′-bipiperidine]
c1ccc(CN2CCc3c(ncnc3N3CCC(N4CCCCCC4)CC3)C2)cc1 [Compound 18, 4-(4-azepan-1-ylpiperidin-1-yl)-7-benzyl-5,6,7,8-tetrahydropyrido[3,4-d]pyrimidine]
c1ccc(CN2CCc3c(ncnc3N3CCN(CCCN4CCCC4)CC3)C2)cc1 [Compound 19, 7-benzyl-4-[4-(3-pyrrolidin-1-ylpropyl)piperazin-1-yl]-5,6,7,8-tetrahydropyrido[3,4-d]pyrimidine]
CCN(CC)CCCN1CCN(c2ncnc3c2CCN(Cc2ccccc2)C3)CC1 [Compound 20, 3-[4-(7-benzyl-5,6,7,8-tetrahydropyrido[3,4-d]pyrimidin-4-yl)piperazin-1-yl]-N,N-diethylpropan-1-amine]
c1ccc(CN2CCc3c(ncnc3N3CCN(CCCN4CCCCC4)CC3)C2)cc1 [Compound 21, 7-benzyl-4-[4-(3-piperidin-1-ylpropyl)piperazin-1-yl]-5,6,7,8-tetrahydropyrido[3,4-d]pyrimidine]
O=C(c1ccccc1)N1CCc2c(ncnc2N2CCN(C3CCC3)CC2)C1 [Compound 22, 7-benzoyl-4-(4-cyclobutylpiperazin-1-yl)-5,6,7,8-tetrahydropyrido[3,4-d]pyrimidine]
Cc1cccc(C(=O)N2CCc3c(ncnc3N3CCN(C4CCC4)CC3)C2)c1 [Compound 23, 4-(4-cyclobutylpiperazin-1-yl)-7-(3-methylbenzoyl)-5,6,7,8-tetrahydropyrido[3,4-d]pyrimidine]
Cc1ccc(C(=O)N2CCc3c(ncnc3N3CCN(C4CCC4)CC3)C2)cc1 [Compound 24, 4-(4-cyclobutylpiperazin-1-yl)-7-(4-methylbenzoyl)-5,6,7,8-tetrahydropyrido[3,4-d]pyrimidine]
Cc1ccccc1C(=O)N1CCc2c(ncnc2N2CCN(C3CCC3)CC2)C1 [Compound 25, 4-(4-cyclobutylpiperazin-1-yl)-7-(2-methylbenzoyl)-5,6,7,8-tetrahydropyrido[3,4-d]pyrimidine]
COc1cccc(C(=O)N2CCc3c(ncnc3N3CCN(C4CCC4)CC3)C2)c1 [Compound 26, 4-(4-cyclobutylpiperazin-1-yl)-7-(3-methoxybenzoyl)-5,6,7,8-tetrahydropyrido[3,4-d]pyrimidine]
COc1ccc(C(=O)N2CCc3c(ncnc3N3CCN(C4CCC4)CC3)C2)cc1 [Compound 27, 4-(4-cyclobutylpiperazin-1-yl)-7-(4-methoxybenzoyl)-5,6,7,8-tetrahydropyrido[3,4-d]pyrimidine]
COc1ccccc1C(=O)N1CCc2c(ncnc2N2CCN(C3CCC3)CC2)C1 [Compound 28, 4-(4-cyclobutylpiperazin-1-yl)-7-(2-methoxybenzoyl)-5,6,7,8-tetrahydropyrido[3,4-d]pyrimidine]
O=C(c1cccc(F)c1)N1CCc2c(ncnc2N2CCN(C3CCC3)CC2)C1 [Compound 29, 4-(4-cyclobutylpiperazin-1-yl)-7-(3-fluorobenzoyl)-5,6,7,8-tetrahydropyrido[3,4-d]pyrimidine]
O=C(c1ccc(F)cc1)N1CCc2c(ncnc2N2CCN(C3CCC3)CC2)C1 [Compound 30, 4-(4-cyclobutylpiperazin-1-yl)-7-(4-fluorobenzoyl)-5,6,7,8-tetrahydropyrido[3,4-d]pyrimidine]
O=C(c1ccccc1F)N1CCc2c(ncnc2N2CCN(C3CCC3)CC2)C1 [Compound 31, 4-(4-cyclobutylpiperazin-1-yl)-7-(2-fluorobenzoyl)-5,6,7,8-tetrahydropyrido[3,4-d]pyrimidine]
O=C(c1ccco1)N1CCc2c(ncnc2N2CCN(C3CCC3)CC2)C1 [Compound 32, 4-(4-cyclobutylpiperazin-1-yl)-7-(2-furoyl)-5,6,7,8-tetrahydropyrido[3,4-d]pyrimidine]
O=C(c1ccoc1)N1CCc2c(ncnc2N2CCN(C3CCC3)CC2)C1 [Compound 33, 4-(4-cyclobutylpiperazin-1-yl)-7-(3-furoyl)-5,6,7,8-tetrahydropyrido[3,4-d]pyrimidine]
O=C(c1cccnc1)N1CCc2c(ncnc2N2CCN(C3CCC3)CC2)C1 [Compound 34, 4-(4-cyclobutylpiperazin-1-yl)-7-(pyridin-3-ylcarbonyl)-5,6,7,8-tetrahydropyrido[3,4-d]pyrimidine]
O=C(c1ccccn1)N1CCc2c(ncnc2N2CCN(C3CCC3)CC2)C1 [Compound 35, 4-(4-cyclobutylpiperazin-1-yl)-7-(pyridin-2-ylcarbonyl)-5,6,7,8-tetrahydropyrido[3,4-d]pyrimidine]
O=C(c1ccno1)N1CCc2c(ncnc2N2CCN(C3CCC3)CC2)C1 [Compound 36, 4-(4-cyclobutylpiperazin-1-yl)-7-(isoxazol-5-ylcarbonyl)-5,6,7,8-tetrahydropyrido[3,4-d]pyrimidine]
Cc1noc(C)c1C(=O)N1CCc2c(ncnc2N2CCN(C3CCC3)CC2)C1 [Compound 37, 4-(4-cyclobutylpiperazin-1-yl)-7-[(3,5-dimethylisoxazol-4-yl)carbonyl]-5,6,7,8-tetrahydropyrido[3,4-d]pyrimidine]

Same assay, conditions: test compound 4 μM, 1 μM histamine; read-out: percent inhibition of agonist-induced GTP-gammaS binding to H3

Inhibition at 4 µM, ≥ 90%:
c1ccc(CN2CCc3c(ncnc3N3CCN(C4CCC4)CC3)C2)cc1 [Compound 1, 7-Benzyl-4-(4-cyclobutylpiperazin-1-yl)-5,6,7,8-tetrahydropyrido[3,4-d]pyrimidine]
c1nc2c(c(N3CCN(C4CCC4)CC3)n1)CCN(CC1CCCCC1)C2 [Compound 2, 4-(4-Cyclobutylpiperazin-1-yl)-7-cyclohexylmethyl-5,6,7,8-tetrahydropyrido[3,4-d]pyrimidine]
CC(=O)c1ccc(N2CCc3c(ncnc3N3CCN(C4CCC4)CC3)C2)cc1 [Compound 3, 1-{4-[4-(4-Cyclobutylpiperazin-1-yl)-5,8-dihydropyrido[3.4-d]pyrimidin-7(6H)-yl]phenyl}Ethanone]
O=C(c1ccc(F)cc1)N1CCc2cnc(N3CCN(C4CCC4)CC3)nc2CC1 [Compound 10, [2-(4-Cyclobutyl-piperazin-1-yl)-5,6,8,9-tetrahydro-pyrimido[4.5-d]azepin-7-yl]-(4-fluoro-phenyl)-methanone]
CC(=O)c1ccc(N2CCc3cnc(N4CCN(C5CCC5)CC4)nc3CC2)cc1 [Compound 11, 1-{4-[2-(4-Cyclobutyl-piperazin-1-yl)-5,6,8,9-tetrahydro-pyrimido[4.5-d]azepin-7-yl]-phenyl}-ethanone]
O=S(=O)(c1ccccc1)N1CCc2cnc(N3CCN(C4CCC4)CC3)nc2CC1 [Compound 12, 7-Benzenesulfonyl-2-(4-Cyclobutyl-piperazin-1-yl)-6,7,8,9-tetrahydro-5H-pyrimido[4.5-d]azepine]
